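Where inhibition never reached the appropriate level, the endpoint shown equals the highest concentration tested. Otherwise, values were interpolated linearly from a five-concentration, 48-hour dose response in 96-well plates. GI50 is the concentration that inhibits growth by half. TGI: total growth inhibition.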
Legend:
Experiment in all cases: growth of human tumour cells (NCI), 48 h
[1] = test system: SR leukemia
[2] = test system: A498 renal
[3] = test system: 786-0 renal
[4] = test system: U251 CNS
[5] = test system: SW-620 colon
[6] = test system: A549 NSCLC
[7] = test system: OVCAR-8 ovarian
[8] = test system: MCF7 breast
[9] = test system: SK-OV-3 ovarian
[10] = test system: OVCAR-5 ovarian
[11] = test system: LOX IMVI melanoma
[12] = test system: MDA-MB-231 breast
[13] = test system: SNB-75 CNS
[14] = test system: SK-MEL-2 melanoma
[15] = test system: MALME-3M melanoma
[16] = test system: HS 578T breast
[17] = test system: ACHN renal
[18] = test system: UACC-62 melanoma
[19] = test system: HOP-62 NSCLC
[20] = test system: PC-3 prostate
[21] = test system: MDA-MB-435
[22] = test system: DU-145 prostate
[23] = test system: SN12C renal
[24] = test system: HL-60(TB) leukemia
[25] = test system: IGROV1 ovarian
[26] = test system: NCI-H23 lung
[27] = test system: BT-549 breast
[28] = test system: UACC-257 melanoma
[29] = test system: HCC-2998 colon
[30] = test system: T-47D breast
[31] = test system: NCI-H226 lung
[32] = test system: SF-268 CNS
[33] = test system: NCI/ADR-RES ovarian
[34] = test system: COLO 205 colon
[35] = test system: SK-MEL-5 melanoma
[36] = test system: TK-10 renal
[37] = test system: HT29 colon
[38] = test system: UO-31 renal
[39] = test system: CAKI-1 renal
[40] = test system: HCT-116 colon
[41] = test system: KM12 colon
[42] = test system: M14 melanoma
[43] = test system: NCI-H460 lung
[44] = test system: MOLT-4 leukemia
[45] = test system: CCRF-CEM leukemia
[46] = test system: RXF 393 renal
[47] = test system: HCT-15 colon
[48] = test system: SNB-19 CNS
[49] = test system: OVCAR-4 ovarian
[50] = test system: SK-MEL-28 melanoma
[51] = test system: HOP-92 NSCLC
[52] = test system: OVCAR-3 ovarian
[53] = test system: SF-295 CNS
[54] = test system: SF-539 CNS
[55] = test system: EKVX NSCLC
[56] = test system: RPMI-8226 leukemia
[57] = test system: K-562 leukemia
[58] = test system: NCI-H522 lung

In the case of CC(C)=CCNc1ncnc2c1ncn2C1OC(CO)C(O)C1O (stereo not drawn), the GI50 [1] is reported as 799 nM, the TGI [1] is reported as over 334 µM and the GI50 [2] is reported as 405 nM. The TGI [2] was 1510 nM, the GI50 [3] was 1370 nM and the TGI [3] was 11.4 µM. For the same molecule, the GI50 [4] was 36.2 µM, the TGI [4] was over 1000 µM and the GI50 [5] was 725 nM. The TGI [5] was 24.7 µM, the GI50 [6] was 2850 nM and the TGI [6] was 299 µM. The GI50 [7] was 496 nM, the TGI [7] was 3.34 µM and the GI50 [8] was 624 nM. The TGI [8] was 12.3 µM, the GI50 [9] was 1750 nM and the TGI [9] was 33.5 µM. It also gave a GI50 [10] of 13.3 µM, a TGI [10] of over 1000 µM and a GI50 [11] of 353 nM. The TGI [11] was 1500 nM, the GI50 [12] was 1.52 µM and the TGI [12] was 9.33 µM. It also gave a GI50 [13] of 2520 nM, a TGI [13] of 55.9 µM and a GI50 [14] of 16.2 µM. It also gave a TGI [14] of 334 µM, a GI50 [15] of 226 µM and a TGI [15] of over 1000 µM. The GI50 [16] was 684 nM, the TGI [16] was 4.33 µM and the GI50 [17] was 987 nM. It also gave a TGI [17] of over 526 µM, a TGI [18] of over 1000 µM and a GI50 [19] of 1300 nM. It also gave a TGI [19] of 6.7 µM, a GI50 [20] of 616 nM and a TGI [20] of 31 µM. It also gave a GI50 [21] of 3.26 µM, a TGI [21] of over 1000 µM and a GI50 [22] of 277 nM. The TGI [22] was 943 nM, the GI50 [23] was 1360 nM and the TGI [23] was over 408 µM. The GI50 [24] was 290 nM, the TGI [24] was 822 nM and the GI50 [25] was 573 nM. It also gave a TGI [25] of 19.2 µM, a GI50 [26] of 2810 nM and a TGI [26] of 125 µM. For the same molecule, the GI50 [27] was 570 nM, the TGI [27] was 2800 nM and the GI50 [28] was over 792 µM. For the same molecule, the TGI [28] was over 1000 µM, the GI50 [29] was 4.49 µM and the TGI [29] was 94.3 µM. It also gave a GI50 [30] of 983 nM, a TGI [30] of 3.92 µM and a GI50 [31] of 2600 nM. It also gave a TGI [31] of 7.1 µM, a GI50 [32] of 2000 nM and a TGI [32] of over 432 µM. It also gave a GI50 [33] of 1500 nM, a TGI [33] of 52.1 µM and a GI50 [34] of 3.96 µM. It also gave a TGI [34] of 550 µM, a GI50 [35] of 5.74 µM and a TGI [35] of over 1000 µM. For the same molecule, the GI50 [36] was 1040 nM, the TGI [36] was 85.6 µM and the GI50 [37] was 1340 nM. The TGI [37] was over 1000 µM, the GI50 [38] was 6.94 µM and the TGI [38] was 50 µM. For the same molecule, the GI50 [39] was 0.721 µM, the TGI [39] was 4.74 µM and the GI50 [40] was 499 nM. It also gave a TGI [40] of 5.77 µM, a GI50 [41] of 2740 nM and a TGI [41] of over 630 µM. For the same molecule, the GI50 [42] was 2850 nM, the TGI [42] was over 766 µM and the GI50 [43] was 4.02 µM. For the same molecule, the TGI [43] was over 345 µM, the GI50 [44] was 457 nM and the TGI [44] was 3.82 µM. The GI50 [45] was 456 nM, the TGI [45] was 3.17 µM and the GI50 [46] was 488 nM. The TGI [46] was 2600 nM, the GI50 [47] was 1050 nM and the TGI [47] was 36.8 µM. For the same molecule, the GI50 [48] was 3.81 µM, the TGI [48] was over 201 µM and the GI50 [49] was 793 nM. The TGI [49] was over 1000 µM, the GI50 [50] was over 346 µM and the TGI [50] was over 1000 µM. For the same molecule, the GI50 [51] was 1.14 µM, the TGI [51] was 3.99 µM and the GI50 [52] was 373 nM. For the same molecule, the TGI [52] was 1100 nM, the GI50 [53] was 671 nM and the TGI [53] was 2600 nM. It also gave a GI50 [54] of 2220 nM, a TGI [54] of 7.65 µM and a GI50 [55] of 7.79 µM. For the same molecule, the TGI [55] was over 1 mM, the GI50 [56] was 2910 nM and the TGI [56] was 25.2 µM. For the same molecule, the GI50 [57] was 703 nM and the TGI [57] was over 380 µM.

Work on COc1ccc(C(C)=O)cc1N1C(=O)C2C(C1=O)C1(c3ccccc3)C(=O)C2(c2ccccc2)C(c2ccc(C)cc2)=C1c1ccc(C)cc1 (stereo not drawn) yielded a GI50 [1] of over 100000 nM, a TGI [1] of over 100 µM and a GI50 [3] of over 100000 nM. It also gave a TGI [3] of over 100 µM, a GI50 [4] of over 100 µM and a TGI [4] of over 100 µM. For the same molecule, the GI50 [5] was over 100000 nM, the TGI [5] was over 100 µM and the GI50 [6] was over 100000 nM. It also gave a TGI [6] of over 100 µM, a GI50 [7] of over 100000 nM and a TGI [7] of over 100 µM. For the same molecule, the GI50 [8] was over 100000 nM, the TGI [8] was over 100 µM and the GI50 [9] was over 100000 nM. It also gave a TGI [9] of over 100 µM, a GI50 [10] of over 100 µM and a TGI [10] of over 100 µM. The GI50 [11] was over 100000 nM, the TGI [11] was over 100000 nM and the GI50 [12] was 33.1 µM. The TGI [12] was over 100 µM, the GI50 [13] was over 100000 nM and the TGI [13] was over 100 µM. For the same molecule, the GI50 [14] was over 100 µM, the TGI [14] was over 100 µM and the GI50 [58] was over 100 µM. It also gave a TGI [58] of over 100 µM, a GI50 [15] of over 100 µM and a TGI [15] of over 100 µM. For the same molecule, the GI50 [16] was over 100000 nM, the TGI [16] was over 100 µM and the GI50 [17] was over 100000 nM. The TGI [17] was over 100 µM, the GI50 [18] was over 100 µM and the TGI [18] was over 100 µM. It also gave a GI50 [19] of over 100000 nM, a TGI [19] of over 100 µM and a GI50 [20] of over 100000 nM. For the same molecule, the TGI [20] was over 100 µM, the GI50 [21] was over 100 µM and the TGI [21] was over 100 µM. It also gave a GI50 [22] of over 100000 nM, a TGI [22] of over 100000 nM and a GI50 [23] of over 100000 nM. The TGI [23] was over 100 µM, the GI50 [24] was over 100000 nM and the TGI [24] was over 100000 nM. It also gave a GI50 [25] of over 100000 nM, a TGI [25] of over 100 µM and a GI50 [26] of over 100000 nM. The TGI [26] was over 100 µM, the GI50 [27] was over 100000 nM and the TGI [27] was over 100000 nM. For the same molecule, the GI50 [28] was over 100 µM, the TGI [28] was over 100 µM and the GI50 [29] was over 100 µM. It also gave a TGI [29] of over 100 µM, a GI50 [30] of over 100000 nM and a TGI [30] of over 100 µM. The GI50 [31] was over 100000 nM, the TGI [31] was over 100 µM and the GI50 [32] was over 100000 nM. It also gave a TGI [32] of over 100 µM, a GI50 [33] of over 100000 nM and a TGI [33] of over 100 µM. For the same molecule, the GI50 [34] was over 100 µM, the TGI [34] was over 100 µM and the GI50 [35] was over 100 µM. The TGI [35] was over 100 µM, the GI50 [36] was over 100000 nM and the TGI [36] was over 100 µM. For the same molecule, the GI50 [37] was over 100000 nM, the TGI [37] was over 100 µM and the GI50 [38] was over 100 µM. It also gave a TGI [38] of over 100 µM, a GI50 [39] of 17.6 µM and a TGI [39] of over 100 µM. For the same molecule, the GI50 [40] was over 100000 nM, the TGI [40] was over 100 µM and the GI50 [41] was over 100000 nM. For the same molecule, the TGI [41] was over 100 µM, the GI50 [43] was over 100 µM and the TGI [43] was over 100 µM. For the same molecule, the GI50 [44] was over 100000 nM, the TGI [44] was over 100 µM and the GI50 [45] was over 100000 nM. The TGI [45] was over 100 µM, the GI50 [46] was over 100000 nM and the TGI [46] was over 100000 nM. It also gave a GI50 [47] of over 100000 nM, a TGI [47] of over 100 µM and a GI50 [48] of over 100 µM. The TGI [48] was over 100 µM, the GI50 [49] was over 100000 nM and the TGI [49] was over 100 µM. The GI50 [50] was over 100 µM, the TGI [50] was over 100 µM and the GI50 [51] was 21.7 µM. For the same molecule, the TGI [51] was over 100 µM, the GI50 [52] was over 100000 nM and the TGI [52] was over 100000 nM. It also gave a GI50 [53] of over 100000 nM, a TGI [53] of over 100000 nM and a GI50 [54] of over 100000 nM. The TGI [54] was over 100 µM, the GI50 [56] was over 100000 nM and the TGI [56] was over 100 µM. For the same molecule, the GI50 [57] was over 100000 nM and the TGI [57] was over 100 µM.
